Laboratory results reported in PubChem BioAssay (NCI).
Values joined by “and” are separate entries in the source; they are usually repeats but may differ in a detail not shown here. Equal values may be shown once.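 All cell lines were grown in 96-well plates and treated with compound for 48 hours. At the GI50, growth is halved. TGI marks complete inhibition of growth.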

Legend:
Assay in all cases: NCI-60 cell line screen, 48 h
[1] = test system: HCT-116 colon
[2] = test system: IGROV1 ovarian
[3] = test system: MDA-MB-231 breast
[4] = test system: SW-620 colon
[5] = test system: SNB-75 CNS
[6] = test system: HS 578T breast
[7] = test system: NCI-H226 lung
[8] = test system: HT29 colon
[9] = test system: RXF 393 renal
[10] = test system: MOLT-4 leukemia

| Structure (SMILES) | GI50 [1] | TGI [1] | GI50 [2] | TGI [2] | GI50 [3] | TGI [3] | GI50 [4] | TGI [4] | GI50 [5] | TGI [5] | GI50 [6] | TGI [6] | GI50 [7] | TGI [7] | GI50 [8] | TGI [8] | GI50 [9] | TGI [9] | TGI [10] | GI50 [10] |
| --- | --- | --- | --- | --- | --- | --- | --- | --- | --- | --- | --- | --- | --- | --- | --- | --- | --- | --- | --- | --- |
| CC(=O)/C=C/C1=C(c2cccs2)c2ccccc2CC1 | 37.6 µM | > 100 µM | 19.8 µM | 49.7 µM | 23.3 µM | 59.1 µM | 33.9 µM | > 100 µM | 25.6 µM | 68.1 µM | 29.5 µM | 98.6 µM | 28.7 µM | 93.5 µM | 26.9 µM | 68.4 µM | 31.8 µM | 78.9 µM |  |  |
| O=C(O)/C(=C\c1ccccc1Cl)S(=O)(=O)c1ccccc1 |  | > 100 µM |  | > 100 µM |  |  |  | > 100 µM |  | > 100 µM |  |  |  |  |  | > 100 µM |  | > 100 µM | > 100 µM |  |
| Cc1cc(C)n(C(=O)c2nn(-c3ccc(Cl)cc3)cc2O)n1 | 3.42 µM | 48.2 µM | 3.16 µM | 73.3 µM | 8.8 µM | > 100 µM | 8.02 µM | > 100 µM | 3.52 µM | 73.1 µM | 3.21 µM | > 100 µM | 4.66 µM | 98.9 µM | 32.9 µM | > 100 µM | 4.58 µM | > 100 µM |  |  |
| CC(=O)[C-](C(C)=O)c1ccccc1.CC(=O)[C-](C(C)=O)c1ccccc1.CC[O-].CC[O-].[Ti+4] | > 100 µM | > 100 µM | > 100 µM | > 100 µM |  |  | > 100 µM | > 100 µM | > 100 µM | > 100 µM |  |  | > 100 µM | > 100 µM | > 100 µM | > 100 µM |  |  | > 100 µM | > 100 µM |
| CCCCCCCCCCCC(=O)c1c(O)cccc1O |  | 33.1 µM |  | 32.4 µM |  |  |  | 33.5 µM |  | 31.9 µM |  |  |  | 34.7 µM |  | 45 µM |  | 40.4 µM | 47.8 µM |  |
| CC(C(=O)c1ccc(Cl)cc1)C1OC(=O)C(Cl)=C1Cl (centres undefined) |  |  |  | > 100 µM |  |  |  | > 100 µM |  | > 100 µM |  |  |  | > 100 µM |  | > 100 µM |  | 35.4 µM | 64 µM |  |
| OCC#Cc1ccccc1C#Cc1ccc(C#Cc2ccccc2C#CCO)s1 | 24.2 µM | 50.1 µM | 13.7 µM | 34.2 µM | 18.9 µM | 53.5 µM | 18.4 µM | 37.3 µM | 48.1 µM | 78.7 µM | 22.3 µM | 58.1 µM |  |  |  |  | 19.6 µM | 39.6 µM |  |  |
| c1cc[c]([Sn]([S]c2cccc3cccnc23)([S]c2cccc3cccnc23)[c]2ccccc2)cc1 | 0.175 µM | 0.324 µM | 0.267 µM | 0.789 µM |  |  | 0.14 µM | 0.365 µM | 0.192 µM | 1.16 µM |  |  | 0.175 µM | 1.06 µM | 0.222 µM | 0.565 µM | 0.109 µM | 0.23 µM | 0.542 µM | 0.101 µM |
| CCCCCC(O)(CCCCC)CCCCCCCCC1=C(O)c2[nH]c(=O)ccc2C(=O)C1=O |  | 16.4 µM |  | 18.9 µM |  |  |  | 20.6 µM |  | 32.3 µM |  |  |  | 28.8 µM |  | 30.5 µM |  | 21.4 µM | 55.5 µM |  |
| CCCCCCCCCCCC(O)=C1C(=O)CC(O)CC1=O (centres undefined) |  | > 100 µM |  | > 100 µM |  |  |  | > 100 µM |  | > 100 µM |  |  |  | > 100 µM |  | > 100 µM |  | > 100 µM | > 100 µM |  |
| COC(=O)/C(=C/c1ccc(OC)cc1)NC(=O)c1ccccc1 |  | > 100 µM |  | > 100 µM |  |  |  | > 100 µM |  | > 100 µM |  |  |  | > 100 µM |  | > 100 µM |  | > 100 µM | > 100 µM |  |
| N[C@@H]1CCCC[C@@H]1N.O=C([O-])CN(CP(=O)([O-])[O-])CP(=O)([O-])[O-].[Pt+2] | > 100 µM | > 100 µM | > 100 µM | > 100 µM |  |  | > 100 µM | > 100 µM | > 100 µM | > 100 µM |  |  | > 100 µM | > 100 µM | > 100 µM | > 100 µM |  |  | > 100 µM | 82.5 µM |
| CC(O)C(O)C(O)C(/C=N\Nc1ccccc1)=N/Nc1ccccc1 (centres undefined) |  | 30.5 µM |  | 21.4 µM |  | 27.3 µM |  | 25.8 µM |  | 38.4 µM |  | 24.7 µM |  |  |  | 30.8 µM |  |  | 69.5 µM |  |
| C#C[C@H](CCCC)OC(=O)N[C@H](C)c1ccccc1 |  | 63.4 µM |  | > 100 µM |  |  |  | > 100 µM |  | > 100 µM |  |  |  |  |  | > 100 µM |  | 92.4 µM | 94.8 µM |  |
| c1cc(-c2cn[nH]c2)cc(-c2cn[nH]c2)c1 |  | 49.4 µM |  | > 100 µM |  |  |  | > 100 µM |  | 42.7 µM |  |  |  |  |  |  |  | 36.8 µM | > 100 µM |  |
| COc1cc(Cl)c2c3c(c(C(=O)c4ccccc4)oc13)CCC2 |  | > 100 µM |  | > 100 µM |  |  |  | > 100 µM |  | > 100 µM |  |  |  |  |  | > 100 µM |  | > 100 µM | > 100 µM |  |
| CC1(C)CC(=O)C(=[N+]=[N-])C(=O)C1 |  | > 100 µM |  | > 100 µM |  |  |  | > 100 µM |  | > 100 µM |  |  |  | > 100 µM |  | > 100 µM |  | > 100 µM |  |  |
| CC1CCP(=O)(c2ccccc2)CC1 (centres undefined) |  |  |  | > 100 µM |  |  |  | > 100 µM |  | > 100 µM |  |  |  |  |  | > 100 µM |  | > 100 µM | > 100 µM |  |
| Cc1cc(C)cc(Nc2ccc([N+](=O)[O-])c(NCCN3CCOCC3)n2)c1 | 0.00222 µM and 0.0146 µM | > 100 µM |  | > 100 µM |  |  | 0.00176 µM and 0.0147 µM | > 100 µM |  |  | 0.00306 µM and 0.0165 µM | 48.4 µM | 0.0365 µM and 0.0614 µM | > 100 µM | 0.00219 µM and 0.0188 µM | > 100 µM | 0.0208 µM | 48.8 µM | > 100 µM |  |
| COc1cc(NCC2COc3c(ccc(OC)c3OC)C2=O)c([N+](=O)[O-])cc1OC (centres undefined) |  | > 100 µM |  | > 100 µM |  | > 100 µM |  | > 100 µM |  | > 100 µM |  | > 100 µM |  | > 100 µM |  | > 100 µM |  |  | > 100 µM |  |
